Literature values, collected in patent US20220387439A1, “ANTI-INFLAMMATORY PHARMACEUTICAL COMPOSITION COMPRISING PROBIOTICS AND ANTIBIOTICS, AND METHOD USING SAME” (priority 2019, published 2022).

System: patient with otitis media
Settings: Patient 1, otitis media for more than several years; antibiotics taken at other hospitals

N[C@@H](C(=O)N[C@@H]1C(=O)N2C(C(=O)O)=C(Cl)CS[C@H]12)c1ccccc1 [cefaclor]
treatment effect of antibiotics taken earlier: no treatment effect
